From US20070010671A1, “Novel quinazoline derivatives and methods of treatment related to the use thereof” (priority 2003, published 2007)

What follows are compounds tested against MCH receptor (Homo sapiens, UniProt Q99705) (assay: High throughput functional screening FLIPR/FDSS6000: inhibition of MCH-evoked intracellular Ca2+ changes). Conditions: class by percent of control at 10^-7 M or IC50.
Format: cell-based
In short: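 Antagonism is measured as inhibition of the intracellular calcium rise triggered by 50 nM MCH in cells bearing a constitutively active, non-endogenous form of the receptor. Cells are dye-loaded with Fluo4-AM and exposed to compound for 3 min at 37° C before agonist addition.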

Row | Structure (SMILES) | class
1 | CN(C)c1nc(N[C@H]2CC[C@@H](CNC(=S)Nc3cccc([N+](=O)[O-])c3)CC2)nc2ccccc12 [compound 612] | 3 (Class 3: The value of percent of control at 10^−7 M was more than 60% or the value of IC50 was more than 200 nM.)
2 | CN(C)c1nc(N[C@H]2CC[C@@H](CNC(=S)Nc3ccc([N+](=O)[O-])cc3)CC2)nc2ccccc12 [compound 613, N-[(cis-4-{[4-(dimethylamino)quinazolin-2-yl]amino}cyclohexyl)methyl]-N′-(4-nitrophenyl)thiourea] | 2 (Class 2: The value of percent of control at 10^−7 M was from 40% to 60% or the value of IC50 was from 50 nM to 200 nM.)
3 | CN(C)c1nc(N[C@H]2CC[C@@H](CNC(=S)NC(C)(C)CC(C)(C)C)CC2)nc2ccccc12 [compound 614] | 3 (Class 3: The value of percent of control at 10^−7 M was more than 60% or the value of IC50 was more than 200 nM.)
4 | CN(C)c1nc(N[C@H]2CC[C@@H](CNC(=S)Nc3ccccc3)CC2)nc2ccccc12 [compound 615] | 3 (Class 3: The value of percent of control at 10^−7 M was more than 60% or the value of IC50 was more than 200 nM.)
5 | CN(C)c1nc(N[C@H]2CC[C@@H](CNC(=S)Nc3c(F)c(F)c(F)c(F)c3F)CC2)nc2ccccc12 [compound 616, N-[(cis-4-{[4-(dimethylamino)quinazolin-2-yl]amino}cyclohexyl)methyl]-N′-(pentafluorophenyl)thiourea] | 2 (Class 2: The value of percent of control at 10^−7 M was from 40% to 60% or the value of IC50 was from 50 nM to 200 nM.)
6 | CCCNC(=S)NC[C@H]1CC[C@@H](Nc2nc(N(C)C)c3ccccc3n2)CC1 [compound 617] | 3 (Class 3: The value of percent of control at 10^−7 M was more than 60% or the value of IC50 was more than 200 nM.)
7 | CN(C)c1nc(N[C@H]2CC[C@@H](CNC(=S)Nc3cccc(C(F)(F)F)c3)CC2)nc2ccccc12 [compound 618] | 3 (Class 3: The value of percent of control at 10^−7 M was more than 60% or the value of IC50 was more than 200 nM.)
8 | COc1cc(NC(=S)NC[C@H]2CC[C@@H](Nc3nc(N(C)C)c4ccccc4n3)CC2)cc(OC)c1OC [compound 619] | 3 (Class 3: The value of percent of control at 10^−7 M was more than 60% or the value of IC50 was more than 200 nM.)
9 | Cc1ccc(NC(=S)NC[C@H]2CC[C@@H](Nc3nc(N(C)C)c4ccccc4n3)CC2)cc1 [compound 621] | 3 (Class 3: The value of percent of control at 10^−7 M was more than 60% or the value of IC50 was more than 200 nM.)
10 | Cc1ccccc1NC(=S)NC[C@H]1CC[C@@H](Nc2nc(N(C)C)c3ccccc3n2)CC1 [compound 622] | 3 (Class 3: The value of percent of control at 10^−7 M was more than 60% or the value of IC50 was more than 200 nM.)
11 | CN(C)c1nc(N[C@H]2CC[C@@H](CNC(=S)NC(C)(C)C)CC2)nc2ccccc12 [compound 623] | 3 (Class 3: The value of percent of control at 10^−7 M was more than 60% or the value of IC50 was more than 200 nM.)
12 | CN(C)c1nc(N[C@H]2CC[C@@H](CNC(=S)Nc3ccccc3Br)CC2)nc2ccccc12 [compound 625] | 3 (Class 3: The value of percent of control at 10^−7 M was more than 60% or the value of IC50 was more than 200 nM.)
13 | CN(C)c1nc(N[C@H]2CC[C@@H](CNC(=S)Nc3ccccc3Cl)CC2)nc2ccccc12 [compound 626] | 3 (Class 3: The value of percent of control at 10^−7 M was more than 60% or the value of IC50 was more than 200 nM.)
14 | CN(C)c1nc(N[C@H]2CC[C@@H](CNC(=S)NCCc3ccccc3)CC2)nc2ccccc12 [compound 627] | 3 (Class 3: The value of percent of control at 10^−7 M was more than 60% or the value of IC50 was more than 200 nM.)
15 | COc1ccc(NC(=S)NC[C@H]2CC[C@@H](Nc3nc(N(C)C)c4ccccc4n3)CC2)cc1OC [compound 628] | 3 (Class 3: The value of percent of control at 10^−7 M was more than 60% or the value of IC50 was more than 200 nM.)
16 | CCc1ccc(NC(=S)NC[C@H]2CC[C@@H](Nc3nc(N(C)C)c4ccccc4n3)CC2)cc1 [compound 629] | 3 (Class 3: The value of percent of control at 10^−7 M was more than 60% or the value of IC50 was more than 200 nM.)
17 | CSc1ccccc1NC(=S)NC[C@H]1CC[C@@H](Nc2nc(N(C)C)c3ccccc3n2)CC1 [compound 630] | 3 (Class 3: The value of percent of control at 10^−7 M was more than 60% or the value of IC50 was more than 200 nM.)
18 | CN(C)c1nc(N[C@H]2CC[C@@H](CNC(=S)Nc3ccccc3OC(F)(F)F)CC2)nc2ccccc12 [compound 631] | 2 (Class 2: The value of percent of control at 10^−7 M was from 40% to 60% or the value of IC50 was from 50 nM to 200 nM.)
19 | CN(C)c1nc(N[C@H]2CC[C@@H](CNC(=S)Nc3ccccc3C(F)(F)F)CC2)nc2ccccc12 [compound 632] | 3 (Class 3: The value of percent of control at 10^−7 M was more than 60% or the value of IC50 was more than 200 nM.)

Row | Structure (SMILES) | class
20 | CN(C)c1nc(N[C@H]2CC[C@@H](CNC(=S)Nc3ccc(F)c(F)c3F)CC2)nc2ccccc12 [compound 633, N-[(cis-4-{[4-(dimethylamino)quinazolin-2-yl]amino}cyclohexyl)methyl]-N′-(2,3,4-trifluorophenyl)thiourea] | 2 (Class 2: The value of percent of control at 10^−7 M was from 40% to 60% or the value of IC50 was from 50 nM to 200 nM.)
21 | CN(C)c1nc(N[C@H]2CC[C@@H](CNC(=S)Nc3cccc(Cl)c3Cl)CC2)nc2ccccc12 [compound 634] | 3 (Class 3: The value of percent of control at 10^−7 M was more than 60% or the value of IC50 was more than 200 nM.)
22 | CN(C)c1nc(N[C@H]2CC[C@@H](CNC(=S)Nc3ccc(F)cc3F)CC2)nc2ccccc12 [compound 635] | 3 (Class 3: The value of percent of control at 10^−7 M was more than 60% or the value of IC50 was more than 200 nM.)
23 | COc1ccc(OC)c(NC(=S)NC[C@H]2CC[C@@H](Nc3nc(N(C)C)c4ccccc4n3)CC2)c1 [compound 636] | 3 (Class 3: The value of percent of control at 10^−7 M was more than 60% or the value of IC50 was more than 200 nM.)
24 | CN(C)c1nc(N[C@H]2CC[C@@H](CNC(=S)Nc3c(F)cccc3F)CC2)nc2ccccc12 [compound 637] | 3 (Class 3: The value of percent of control at 10^−7 M was more than 60% or the value of IC50 was more than 200 nM.)
25 | CN(C)c1nc(N[C@H]2CC[C@@H](CNC(=S)Nc3ccc([N+](=O)[O-])cc3Cl)CC2)nc2ccccc12 [compound 638] | 3 (Class 3: The value of percent of control at 10^−7 M was more than 60% or the value of IC50 was more than 200 nM.)
26 | CN(C)c1nc(N[C@H]2CC[C@@H](CNC(=S)Nc3ccccc3OC(F)F)CC2)nc2ccccc12 [compound 639] | 3 (Class 3: The value of percent of control at 10^−7 M was more than 60% or the value of IC50 was more than 200 nM.)
27 | CCc1ccccc1NC(=S)NC[C@H]1CC[C@@H](Nc2nc(N(C)C)c3ccccc3n2)CC1 [compound 640, N-[(cis-4-{[4-(dimethylamino)quinazolin-2-yl]amino}cyclohexyl)methyl]-N′-(2-ethylphenyl)thiourea] | 2 (Class 2: The value of percent of control at 10^−7 M was from 40% to 60% or the value of IC50 was from 50 nM to 200 nM.)
28 | CN(C)c1nc(N[C@H]2CC[C@@H](CNC(=S)Nc3cc(C(F)(F)F)ccc3F)CC2)nc2ccccc12 [compound 641] | 3 (Class 3: The value of percent of control at 10^−7 M was more than 60% or the value of IC50 was more than 200 nM.)
29 | CN(C)c1nc(N[C@H]2CC[C@@H](CNC(=S)Nc3ccccc3F)CC2)nc2ccccc12 [compound 642] | 3 (Class 3: The value of percent of control at 10^−7 M was more than 60% or the value of IC50 was more than 200 nM.)
30 | CN(C)c1nc(N[C@H]2CC[C@@H](CNC(=S)Nc3ccccc3I)CC2)nc2ccccc12 [compound 643] | 3 (Class 3: The value of percent of control at 10^−7 M was more than 60% or the value of IC50 was more than 200 nM.)
31 | COc1cc([N+](=O)[O-])ccc1NC(=S)NC[C@H]1CC[C@@H](Nc2nc(N(C)C)c3ccccc3n2)CC1 [compound 644] | 3 (Class 3: The value of percent of control at 10^−7 M was more than 60% or the value of IC50 was more than 200 nM.)
32 | COc1ccc(C)cc1NC(=S)NC[C@H]1CC[C@@H](Nc2nc(N(C)C)c3ccccc3n2)CC1 [compound 645] | 3 (Class 3: The value of percent of control at 10^−7 M was more than 60% or the value of IC50 was more than 200 nM.)
33 | CN(C)c1nc(N[C@H]2CC[C@@H](CNC(=S)Nc3cccc(SC(F)(F)F)c3)CC2)nc2ccccc12 [compound 646] | 3 (Class 3: The value of percent of control at 10^−7 M was more than 60% or the value of IC50 was more than 200 nM.)
34 | CN(C)c1nc(N[C@H]2CC[C@@H](CNC(=S)Nc3cc(Cl)cc(Cl)c3)CC2)nc2ccccc12 [compound 647] | 3 (Class 3: The value of percent of control at 10^−7 M was more than 60% or the value of IC50 was more than 200 nM.)
35 | CN(C)c1nc(N[C@H]2CC[C@@H](CNC(=S)Nc3cc(F)cc(F)c3)CC2)nc2ccccc12 [compound 648] | 3 (Class 3: The value of percent of control at 10^−7 M was more than 60% or the value of IC50 was more than 200 nM.)
36 | CN(C)c1nc(N[C@H]2CC[C@@H](CNC(=S)Nc3cccc(C#N)c3)CC2)nc2ccccc12 [compound 649, N-(3-ciyanophenyl)-N′-[(cis-4-{[4-(dimethylamino)quinazolin-2-yl]amino}cyclohexyl)methyl]thiourea] | 3 (Class 3: The value of percent of control at 10^−7 M was more than 60% or the value of IC50 was more than 200 nM.)
37 | CN(C)c1nc(N[C@H]2CC[C@@H](CNC(=S)Nc3cccc(F)c3)CC2)nc2ccccc12 [compound 650] | 3 (Class 3: The value of percent of control at 10^−7 M was more than 60% or the value of IC50 was more than 200 nM.)
38 | CN(C)c1nc(N[C@H]2CC[C@@H](CNC(=S)Nc3cccc(I)c3)CC2)nc2ccccc12 [compound 651] | 3 (Class 3: The value of percent of control at 10^−7 M was more than 60% or the value of IC50 was more than 200 nM.)
